Data as given in patent publication US20250206745A1, “PYRROLOPYRIDAZINE DERIVATIVES AND RELATED USES” (NodThera Limited, priority 2023, published 2025).
Where a name gives a salt, the structure may show the parent alone.

Legend:
[1] = system: IL-1β release upon NLRP3 activation in phorbol 12-myristate 13-acetate (PMA)-differentiated THP-1 cells; test: THP-1 IC50 Determination Assay; format: cell-based; conditions: Homo sapiens, inhibition of IL-1β release, LPS, nigericin, ELISA
In short: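 THP-1 cells differentiated with 5 ng/mL PMA for ~40 h, plated 30,000/well and primed 2 h with 25 ng/mL LPS. Compounds added as 8-point 1:3 series (0.5% DMSO), then nigericin activation for 2 h at 37 °C; supernatant IL-1β measured by ELISA.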

[2] = system: IL-1β release upon NLRP3 activation in peripheral blood mononuclear cells (PBMC); test: PBMC IC50 Determination Assay; format: cell-based; conditions: Homo sapiens; inhibition of IL-1β release; PBMC primed with LPS, stimulated with ATP or nigericin; ELISA or HTRF
In short: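 Human buffy-coat PBMC primed 3 h with LPS (1 μg/mL in Protocol B), given compound for 30 min, then stimulated 1 h with 5 mM ATP or 10 μM nigericin (Protocol A) or 5 mM ATP (Protocol B). IL-1β in supernatant measured by ELISA at 450 nm (A) or HTRF (B).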

| Compound | IC50 [1] | IC50 [2] |
| --- | --- | --- |
| Cc1cc(Cl)cc(O)c1-c1cc2ccn(CC(=O)N(C)C3COC3)c2nn1 [Compound 58, 2-[3-(4-Chloro-2-hydroxy-6-methylphenyl)-7H-pyrrolo[2,3-c]pyridazin-7-yl]-N-methyl-N-(oxetan-3-yl)acetamide] | 0.1 to 0.3 µM | 0.1 to 0.3 µM |
| Cc1cc(Cl)cc(O)c1-c1cc2ccn(CC(=O)N(C)[C@H]3CCOC3)c2nn1 [Compound 59, 2-[3-(4-Chloro-2-hydroxy-6-methylphenyl)-7H-pyrrolo[2,3-c]pyridazin-7-yl]-N-methyl-N-[(3S)-oxolan-3-yl]acetamide] | 0.1 to 0.3 µM | 0.03 to 0.1 µM |
| Cc1cc(C#N)cc(O)c1-c1cc2ncn(CC3CCN(C)CC3)c2nn1 [Compound 73, 3-Hydroxy-5-methyl-4-{7-[(1-methylpiperidin-4-yl)methyl]-7H-imidazo[4,5-c]pyridazin-3-yl}benzonitrile] | 0.3 to 1 µM | 0.1 to 0.3 µM |
| Cc1cc(Cl)cc(O)c1-c1cc2ncn(C[C@@H]3CCN(C)C3)c2nn1 [Compound 75, 5-Chloro-3-methyl-2-(7-{[(3R)-1-methylpyrrolidin-3-yl]methyl}-7H-imidazo[4,5-c]pyridazin-3-yl)phenol hydrochloride] | 0.1 to 0.3 µM | 0.03 to 0.1 µM |
| Cc1cc(C)c(-c2cc3ncn(CC4CCN(C)CC4)c3nn2)c(O)c1 [Compound 76, 3,5-Dimethyl-2-{7-[(1-methylpiperidin-4-yl)methyl]-7H-imidazo[4,5-c]pyridazin-3-yl}phenol] | 0.03 to 0.1 µM | 0.03 to 0.1 µM |
| Cc1cc(Cl)cc(O)c1-c1cc2ncn(CC(=O)N(C)C)c2nn1 [Compound 77, 2-[3-(4-Chloro-2-hydroxy-6-methylphenyl)-7H-imidazo[4,5-c]pyridazin-7-yl]-N,N-dimethylacetamide] | 0.1 to 0.3 µM | 0.03 to 0.1 µM |
| Cc1cc(Cl)cc(O)c1-c1cc2ncn(CC3(F)CCN(C)CC3)c2nn1 [Compound 78, 5-Chloro-2-{7-[(4-fluoro-1-methylpiperidin-4-yl)methyl]-7H-imidazo[4,5-c]pyridazin-3-yl}-3-methylphenol hydrochloride] | 0.03 to 0.1 µM | 0.03 to 0.1 µM |

Continued, in another order:

| IC50 [1] | Compound | IC50 [2] |
| --- | --- | --- |
| 0.03 to 0.1 µM | CC(=O)N1CCCCC1Cn1ccc2cc(-c3c(C)cc(Cl)cc3O)nnc21 (centres unmarked) [Compound 57, 1-(2-{[3-(4-Chloro-2-hydroxy-6-methylphenyl)-7H-pyrrolo[2,3-c]pyridazin-7-yl]methyl}piperidin-1-yl)ethan-1-one] | 0.03 to 0.1 µM |
| 0.03 to 0.1 µM | Cc1cc(Cl)cc(O)c1-c1cc2ccn(CC3CCN(C=O)CC3)c2nn1 [Compound 63, 4-{[3-(4-Chloro-2-hydroxy-6-methylphenyl)-7H-pyrrolo[2,3-c]pyridazin-7-yl]methyl}piperidine-1-carbaldehyde] | < 0.03 µM |
| 0.03 to 0.1 µM | Cc1cc(Cl)cc(O)c1-c1cc2ccn(CC3CCC(=O)N3C)c2nn1 (centres unmarked) [Compound 65, 5-{[3-(4-Chloro-2-hydroxy-6-methylphenyl)-7H-pyrrolo[2,3-c]pyridazin-7-yl]methyl}-1-methylpyrrolidin-2-one] | 0.03 to 0.1 µM |
| 0.03 to 0.1 µM | Cc1cc(Cl)cc(O)c1-c1cc2ncn(CC3CCN(C)CC3)c2nn1 [Compound 71, 5-Chloro-3-methyl-2-{7-[(1-methylpiperidin-4-yl)methyl]-7H-imidazo[4,5-c]pyridazin-3-yl}phenol] | < 0.03 µM |
| 0.03 to 0.1 µM | CC(=O)N1CCC(Cn2cnc3cc(-c4c(C)cc(Cl)cc4O)nnc32)CC1 [Compound 72, 1-(4-{[3-(4-Chloro-2-hydroxy-6-methylphenyl)-7H-imidazo[4,5-c]pyridazin-7-yl]methyl}piperidin-1-yl)ethan-1-one] | 0.03 to 0.1 µM |
| 0.03 to 0.1 µM | Cc1cc(Cl)cc(O)c1-c1cc2ncn(C[C@H]3CCN(C)C3)c2nn1 [Compound 74, 5-Chloro-3-methyl-2-(7-{[(3S)-1-methylpyrrolidin-3-yl]methyl}-7H-imidazo[4,5-c]pyridazin-3-yl)phenol hydrochloride] | 0.03 to 0.1 µM |
